Tests used:
Experiment in all cases: biochemical
Parameters in all cases: Eurofins recombinant human kinase profiling, remaining kinase activity as % of control, 10 uM ATP
Conditions in all cases: ATP 10 uM; read-out: %Ctrl@10 μM
Tie2(R849W)(h) = target: T1, Tie2(R849W)(h) (Homo sapiens, UniProt Q02763, R849W)
T1 construct: gene TEK
Summary of the method: (§1)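 Activity measured in a commercial panel of 401 recombinant human protein kinases run as a kinase profiling service.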

Fms(Y969C)(h) = target: T2, Fms(Y969C)(h) (Homo sapiens, UniProt P07333, Y969C)
T2 construct: gene CSF1R
T2 sequence (P07333 whole entry Y969C): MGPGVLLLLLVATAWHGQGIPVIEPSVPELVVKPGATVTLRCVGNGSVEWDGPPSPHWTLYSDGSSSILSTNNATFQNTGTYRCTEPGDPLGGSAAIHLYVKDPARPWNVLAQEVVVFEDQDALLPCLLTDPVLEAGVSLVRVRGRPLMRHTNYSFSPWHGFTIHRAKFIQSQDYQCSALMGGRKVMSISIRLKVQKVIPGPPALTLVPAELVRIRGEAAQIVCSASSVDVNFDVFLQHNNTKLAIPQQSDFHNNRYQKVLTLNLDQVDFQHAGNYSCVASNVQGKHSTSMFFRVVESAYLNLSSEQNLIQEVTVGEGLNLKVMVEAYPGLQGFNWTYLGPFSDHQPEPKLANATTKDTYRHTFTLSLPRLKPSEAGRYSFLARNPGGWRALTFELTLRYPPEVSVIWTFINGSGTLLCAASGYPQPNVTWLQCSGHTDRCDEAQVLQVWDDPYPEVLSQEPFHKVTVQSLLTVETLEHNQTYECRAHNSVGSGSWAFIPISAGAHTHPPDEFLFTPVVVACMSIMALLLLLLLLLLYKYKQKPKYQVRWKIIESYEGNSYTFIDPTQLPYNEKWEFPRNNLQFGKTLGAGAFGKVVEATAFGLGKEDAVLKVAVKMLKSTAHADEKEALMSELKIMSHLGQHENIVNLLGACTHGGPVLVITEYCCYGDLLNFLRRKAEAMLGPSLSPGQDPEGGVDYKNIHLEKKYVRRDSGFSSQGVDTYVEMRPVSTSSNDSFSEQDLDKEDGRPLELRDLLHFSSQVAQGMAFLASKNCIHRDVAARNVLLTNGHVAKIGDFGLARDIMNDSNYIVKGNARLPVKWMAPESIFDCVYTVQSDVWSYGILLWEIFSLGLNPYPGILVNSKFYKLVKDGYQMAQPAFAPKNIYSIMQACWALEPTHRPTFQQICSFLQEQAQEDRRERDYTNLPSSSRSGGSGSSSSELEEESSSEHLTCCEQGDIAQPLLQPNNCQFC
Summary of the method: as §1

TGFBR2(h) = TGFBR2(h) (Homo sapiens, UniProt P37173)
Summary of the method: as §1

SGK(h) = target: T3, SGK(h) (Homo sapiens, UniProt O00141)
T3 construct: gene SGK1
T3 sequence (O00141 whole entry): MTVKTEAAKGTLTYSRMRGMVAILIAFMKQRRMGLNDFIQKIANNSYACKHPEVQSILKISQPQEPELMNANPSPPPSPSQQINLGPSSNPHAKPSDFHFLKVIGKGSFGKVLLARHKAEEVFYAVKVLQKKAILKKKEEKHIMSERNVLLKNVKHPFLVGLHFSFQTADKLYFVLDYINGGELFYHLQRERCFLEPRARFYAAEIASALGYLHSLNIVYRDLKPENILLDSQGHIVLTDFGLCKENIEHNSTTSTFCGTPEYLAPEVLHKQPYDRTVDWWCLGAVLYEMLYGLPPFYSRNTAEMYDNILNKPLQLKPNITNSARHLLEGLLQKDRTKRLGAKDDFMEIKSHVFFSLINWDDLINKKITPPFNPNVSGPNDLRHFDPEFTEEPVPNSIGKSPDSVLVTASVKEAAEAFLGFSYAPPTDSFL
Summary of the method: as §1

TAO3(h) = target: T4, TAO3(h) (Homo sapiens, UniProt Q9H2K8)
T4 construct: gene TAOK3
Summary of the method: as §1

eEF-2K(h) = target: T5, eEF-2K(h) (Homo sapiens, UniProt O00418)
T5 construct: gene EEF2K
Summary of the method: as §1

DMPK(h) = DMPK(h) (Homo sapiens, UniProt Q09013)
Chain of DMPK(h) (Q09013 whole entry): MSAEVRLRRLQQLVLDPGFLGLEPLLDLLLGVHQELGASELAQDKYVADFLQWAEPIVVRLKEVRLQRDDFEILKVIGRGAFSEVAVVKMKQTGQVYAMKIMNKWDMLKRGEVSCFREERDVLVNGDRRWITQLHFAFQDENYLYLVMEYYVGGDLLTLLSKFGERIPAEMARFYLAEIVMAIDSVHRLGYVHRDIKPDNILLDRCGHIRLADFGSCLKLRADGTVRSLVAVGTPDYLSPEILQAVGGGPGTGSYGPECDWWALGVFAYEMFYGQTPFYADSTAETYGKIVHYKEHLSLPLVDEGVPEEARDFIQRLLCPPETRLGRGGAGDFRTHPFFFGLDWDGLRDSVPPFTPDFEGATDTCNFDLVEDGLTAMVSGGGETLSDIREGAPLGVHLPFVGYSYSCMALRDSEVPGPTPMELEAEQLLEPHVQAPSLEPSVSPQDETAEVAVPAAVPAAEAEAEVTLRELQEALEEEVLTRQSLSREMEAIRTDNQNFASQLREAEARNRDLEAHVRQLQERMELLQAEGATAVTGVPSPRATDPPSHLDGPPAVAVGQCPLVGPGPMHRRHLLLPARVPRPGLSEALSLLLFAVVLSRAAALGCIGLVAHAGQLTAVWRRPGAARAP
Summary of the method: as §1

TTBK1(h) = TTBK1(h) (Homo sapiens, UniProt Q5TCY1)
Summary of the method: as §1

CDK5/p35(h) = target: T6, CDK5/p35(h) (Homo sapiens, UniProt Q00535)
T6 construct: p35
T6 sequence (Q00535 whole entry): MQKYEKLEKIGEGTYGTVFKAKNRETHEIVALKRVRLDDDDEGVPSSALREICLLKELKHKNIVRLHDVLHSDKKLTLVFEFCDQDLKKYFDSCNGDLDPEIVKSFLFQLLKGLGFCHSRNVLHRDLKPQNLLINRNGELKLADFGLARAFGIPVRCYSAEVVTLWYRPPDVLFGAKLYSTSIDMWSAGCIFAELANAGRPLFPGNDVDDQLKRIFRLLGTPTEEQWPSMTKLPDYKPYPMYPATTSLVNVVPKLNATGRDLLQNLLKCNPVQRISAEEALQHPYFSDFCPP
T6 sequence (Q15078 whole entry partner): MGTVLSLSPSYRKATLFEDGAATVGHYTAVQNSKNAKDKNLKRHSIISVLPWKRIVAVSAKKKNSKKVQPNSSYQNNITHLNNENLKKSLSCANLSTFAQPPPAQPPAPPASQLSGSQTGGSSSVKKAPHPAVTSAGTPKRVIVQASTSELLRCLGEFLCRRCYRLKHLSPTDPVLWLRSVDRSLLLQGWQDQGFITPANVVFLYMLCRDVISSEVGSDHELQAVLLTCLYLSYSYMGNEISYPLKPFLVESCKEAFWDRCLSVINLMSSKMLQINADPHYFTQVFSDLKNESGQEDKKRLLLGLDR
Summary of the method: as §1

Abl (M351T)(h) = target: T7, Abl (M351T)(h) (Homo sapiens, UniProt P00519, M351T)
T7 construct: gene ABL1
Summary of the method: as §1

TAO2(h) = target: T8, TAO2(h) (Homo sapiens, UniProt Q9UL54)
T8 construct: gene TAOK2
Summary of the method: as §1

TTBK2(h) = TTBK2(h) (Homo sapiens, UniProt Q6IQ55)
Chain of TTBK2(h) (Q6IQ55 whole entry): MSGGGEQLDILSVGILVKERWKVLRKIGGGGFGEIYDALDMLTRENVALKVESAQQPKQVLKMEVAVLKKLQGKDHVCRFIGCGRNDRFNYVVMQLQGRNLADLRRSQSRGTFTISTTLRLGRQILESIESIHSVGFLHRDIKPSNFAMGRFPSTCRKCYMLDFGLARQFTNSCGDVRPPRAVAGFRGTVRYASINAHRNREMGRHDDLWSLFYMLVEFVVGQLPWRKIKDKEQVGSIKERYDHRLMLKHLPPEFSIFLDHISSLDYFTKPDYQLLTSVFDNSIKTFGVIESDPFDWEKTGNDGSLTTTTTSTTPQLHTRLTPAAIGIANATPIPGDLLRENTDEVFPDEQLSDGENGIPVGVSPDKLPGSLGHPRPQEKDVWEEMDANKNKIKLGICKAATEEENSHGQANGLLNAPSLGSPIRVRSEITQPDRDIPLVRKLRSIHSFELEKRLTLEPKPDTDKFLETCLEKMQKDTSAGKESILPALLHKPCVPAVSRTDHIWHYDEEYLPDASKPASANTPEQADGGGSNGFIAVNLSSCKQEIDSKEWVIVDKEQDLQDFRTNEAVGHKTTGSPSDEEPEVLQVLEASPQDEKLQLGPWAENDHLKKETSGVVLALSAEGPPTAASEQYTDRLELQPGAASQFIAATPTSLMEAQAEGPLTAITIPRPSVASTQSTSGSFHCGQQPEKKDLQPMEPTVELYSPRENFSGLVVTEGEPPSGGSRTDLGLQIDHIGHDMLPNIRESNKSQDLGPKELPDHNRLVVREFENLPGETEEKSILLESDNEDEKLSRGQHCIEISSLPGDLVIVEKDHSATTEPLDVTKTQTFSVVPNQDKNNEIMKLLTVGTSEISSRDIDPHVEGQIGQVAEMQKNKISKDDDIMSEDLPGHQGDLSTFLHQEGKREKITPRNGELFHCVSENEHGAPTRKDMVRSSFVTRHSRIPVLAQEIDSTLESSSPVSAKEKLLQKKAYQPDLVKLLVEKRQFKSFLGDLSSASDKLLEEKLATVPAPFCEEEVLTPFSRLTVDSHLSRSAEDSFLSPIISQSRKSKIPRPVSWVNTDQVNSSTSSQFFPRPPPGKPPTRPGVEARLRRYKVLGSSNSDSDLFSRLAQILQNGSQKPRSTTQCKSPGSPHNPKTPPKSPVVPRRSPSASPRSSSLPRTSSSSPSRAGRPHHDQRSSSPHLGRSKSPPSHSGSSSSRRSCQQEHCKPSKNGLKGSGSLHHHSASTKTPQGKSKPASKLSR
Summary of the method: as §1

PDK1(h) = target: T9, PDK1(h) (Homo sapiens, UniProt O15530)
T9 construct: gene PDPK1
Summary of the method: as §1

RIPK1(h) = RIPK1(h) (Homo sapiens, UniProt Q13546)
Summary of the method: as §1

NDR2(h) = target: T10, NDR2(h) (Homo sapiens, UniProt Q9Y2H1)
T10 construct: gene STK38L
Summary of the method: as §1

CDK9/cyclin T1(h) = CDK9/cyclin T1(h) (Homo sapiens, UniProt P50750)
Summary of the method: as §1

BTK(h) = BTK(h) (Homo sapiens, UniProt Q06187)
Chain of BTK(h) (Q06187 whole entry): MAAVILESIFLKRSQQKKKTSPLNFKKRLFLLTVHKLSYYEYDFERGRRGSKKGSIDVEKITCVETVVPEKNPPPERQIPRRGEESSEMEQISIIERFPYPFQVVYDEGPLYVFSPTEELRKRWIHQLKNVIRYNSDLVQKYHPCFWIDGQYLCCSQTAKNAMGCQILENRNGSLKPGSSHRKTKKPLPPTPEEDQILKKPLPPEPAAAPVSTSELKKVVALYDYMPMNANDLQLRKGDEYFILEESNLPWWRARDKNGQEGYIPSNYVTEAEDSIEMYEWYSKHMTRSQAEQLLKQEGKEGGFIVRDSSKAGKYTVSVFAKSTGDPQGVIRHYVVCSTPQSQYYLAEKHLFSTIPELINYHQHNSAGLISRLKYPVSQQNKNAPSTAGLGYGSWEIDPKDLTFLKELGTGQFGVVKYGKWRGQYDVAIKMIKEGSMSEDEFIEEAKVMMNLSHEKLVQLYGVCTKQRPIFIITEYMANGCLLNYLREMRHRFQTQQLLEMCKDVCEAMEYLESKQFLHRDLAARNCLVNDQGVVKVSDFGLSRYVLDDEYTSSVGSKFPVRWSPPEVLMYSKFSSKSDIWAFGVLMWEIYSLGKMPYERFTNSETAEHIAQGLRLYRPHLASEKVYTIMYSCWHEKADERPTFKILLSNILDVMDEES
Summary of the method: as §1

MLCK(h) = target: T11, MLCK(h) (Homo sapiens, UniProt Q15746)
T11 construct: gene MYLK
Summary of the method: as §1

CSK(h) = CSK(h) (Homo sapiens, UniProt P41240)
Chain of CSK(h) (P41240 whole entry): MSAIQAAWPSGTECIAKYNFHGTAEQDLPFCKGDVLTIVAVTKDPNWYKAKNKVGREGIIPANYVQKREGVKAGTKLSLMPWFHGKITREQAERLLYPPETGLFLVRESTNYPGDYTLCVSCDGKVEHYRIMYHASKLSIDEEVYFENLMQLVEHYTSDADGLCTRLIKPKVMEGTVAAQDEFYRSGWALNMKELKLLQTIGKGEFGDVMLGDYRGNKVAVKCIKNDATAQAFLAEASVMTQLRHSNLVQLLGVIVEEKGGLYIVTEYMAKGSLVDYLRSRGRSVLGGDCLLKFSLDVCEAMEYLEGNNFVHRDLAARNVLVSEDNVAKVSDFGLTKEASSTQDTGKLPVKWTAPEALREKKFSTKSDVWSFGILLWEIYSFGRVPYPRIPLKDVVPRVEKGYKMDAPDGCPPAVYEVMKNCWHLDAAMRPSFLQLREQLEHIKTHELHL
Summary of the method: as §1

Ret(V804M)(h) = Ret(V804M)(h) (Homo sapiens, UniProt P07949, V804M)
Summary of the method: as §1

CDK13/cyclinK(h) = CDK13/cyclinK(h) (Homo sapiens, UniProt Q14004)
Summary of the method: as §1

CDK18/cyclinY(h) = CDK18/cyclinY(h) (Homo sapiens, UniProt Q07002)
Summary of the method: as §1

Work on C1=C(c2nc(-c3cnn(C4CCNCC4)c3)cn3cc(-c4ccccc4)nc23)CCOC1 [YL-939] yielded a remaining activity at 10 µM (Tie2(R849W)(h)) of 122%, a remaining activity at 10 µM (Fms(Y969C)(h)) of 107% and a remaining activity at 10 µM (TGFBR2(h)) of 97%. For the same compound, the remaining activity at 10 µM (SGK(h)) was 72%, the remaining activity at 10 µM (TAO3(h)) was 102% and the remaining activity at 10 µM (eEF-2K(h)) was 93%. It also gave a remaining activity at 10 µM (DMPK(h)) of 107%, a remaining activity at 10 µM (TTBK1(h)) of 103% and a remaining activity at 10 µM (CDK5/p35(h)) of 100%. For the same compound, the remaining activity at 10 µM (Abl (M351T)(h)) was 108%, the remaining activity at 10 µM (TAO2(h)) was 90% and the remaining activity at 10 µM (TTBK2(h)) was 87%. For the same compound, the remaining activity at 10 µM (PDK1(h)) was 127%, the remaining activity at 10 µM (RIPK1(h)) was 106% and the remaining activity at 10 µM (NDR2(h)) was 87%. For the same compound, the remaining activity at 10 µM (CDK9/cyclin T1(h)) was 119%, the remaining activity at 10 µM (BTK(h)) was 83% and the remaining activity at 10 µM (MLCK(h)) was 60%. The remaining activity at 10 µM (CSK(h)) was 105%, the remaining activity at 10 µM (Ret(V804M)(h)) was 102% and the remaining activity at 10 µM (CDK13/cyclinK(h)) was 93%. The remaining activity at 10 µM (CDK18/cyclinY(h)) was 97%.

Reference: paper PMC9719519, “Non-classical ferroptosis inhibition by a small molecule targeting PHB2” (Nature Communications, 2022)
